In the NIST ThermoML archive (doi:10.1016/j.fluid.2019.04.036):

Conditions: Liquid, Transpiration method

CCCCN(C=O)CCCC [N,N-dibutylformamide]
Conditions | vapor or sublimation pressure [kPa]
293.1 K | 0.0026
295.8 K | 0.00329
296.9 K | 0.00365
298 K | 0.004
298.7 K | 0.00421
298.9 K | 0.00438
299.3 K | 0.00469
301.4 K | 0.00534
304.5 K | 0.00695
304.6 K | 0.00705
304.8 K | 0.00709
308.3 K | 0.0097
308.7 K | 0.01006
309.9 K | 0.01103
310.7 K | 0.01193
311.6 K | 0.01265
312.5 K | 0.01383
313.3 K | 0.01469
314.7 K | 0.01666
315.1 K | 0.01677
315.3 K | 0.01776
318.2 K | 0.0217
318.4 K | 0.02183
320.5 K | 0.0256
321.1 K | 0.02589
322.6 K | 0.03097
322.8 K | 0.03141
323.8 K | 0.03251
325.8 K | 0.03894
326.8 K | 0.04037
329.4 K | 0.04901
329.6 K | 0.04927
334.7 K | 0.0724

CCN(C=O)CC [N,N-diethylformamide]
Conditions | vapor or sublimation pressure [kPa]
288.8 K | 0.0751
292.2 K | 0.0961
295.1 K | 0.1173
300.5 K | 0.1677
300.7 K | 0.169
303.7 K | 0.211
305.7 K | 0.2482
310.7 K | 0.3265
315.7 K | 0.4646
320.8 K | 0.6274
323.2 K | 0.7094
325.8 K | 0.8534
330.9 K | 1.093
335.9 K | 1.479
338.5 K | 1.733
340.9 K | 1.948
346 K | 2.46
348.5 K | 2.893
350.9 K | 3.209
356.1 K | 4.164

CCCN(C=O)CCC [N,N-dipropylformamide]
Conditions | vapor or sublimation pressure [kPa]
278.5 K | 0.00516
282.4 K | 0.00741
283.4 K | 0.00814
285.1 K | 0.00949
288.2 K | 0.01246
290.2 K | 0.01527
292.2 K | 0.01766
294.8 K | 0.02239
295.8 K | 0.02392
296.5 K | 0.02608
298.4 K | 0.03075
299.4 K | 0.03131
301.2 K | 0.03699
302.9 K | 0.04152
305.1 K | 0.05251
306.1 K | 0.05391
307.2 K | 0.05892
308.2 K | 0.06219
310.4 K | 0.07592
311.3 K | 0.08121
313.4 K | 0.09479
315.4 K | 0.113
316.4 K | 0.1145
318.5 K | 0.1321
319.4 K | 0.1476

CCCCNC=O [N-butylformamide]
Conditions | vapor or sublimation pressure [kPa]
297.1 K | 0.00293
298.2 K | 0.00321
299.3 K | 0.00349
301.2 K | 0.00422
304.2 K | 0.0056
307.2 K | 0.00731
310.2 K | 0.00912
314.1 K | 0.01307
316.2 K | 0.01498
317.8 K | 0.01763
318.2 K | 0.01802
320.2 K | 0.02208
323.1 K | 0.02695
326.2 K | 0.03461
329.1 K | 0.04093
331.2 K | 0.05017
334.2 K | 0.06336
337.1 K | 0.07893
340.2 K | 0.09365
343.2 K | 0.1151
346.2 K | 0.1403
349.1 K | 0.1719
352.2 K | 0.208

CN(C)C=O [dimethylformamide]
Conditions | vapor or sublimation pressure [kPa]
276.3 K | 0.1229
279.3 K | 0.1498
281.2 K | 0.1752
283.1 K | 0.1994
285.3 K | 0.2375
289.3 K | 0.314
291.3 K | 0.3569
293.3 K | 0.4045
296.3 K | 0.4849
299.5 K | 0.5941
302.2 K | 0.6949
305.2 K | 0.847
